Reference: US11066425B1, “Oxo-substituted compound” (SUMITOMO DAINIPPON PHARMA CO., LTD., priority 2018, dated 2021)
Counter-ions that a name gives are not always drawn.

Test system: β-lactamase producing bacteria
Assay: Test Example 1: MIC of meropenem (MEPM) combined with test compound at fixed 4 μg/mL, broth microdilution
Assay type: cell-based
Conditions: relative to MEPM alone
Method: Test Example 1: Evaluation of Minimum Inhibitory Concentration (MIC) of MEPM Against β-Lactamase Producing Bacteria
To evaluate the β-lactamase inhibitory activity of test compounds, the effect of combination of a test compound and a β-lactam agent against β-lactamase producing bacteria was evaluated. Meropenem (MEPM) was used as a β-lactam antimicrobial agent. The minimum inhibitory concentration (MIC) of MEPM against β-lactamase producing bacteria when a test compound was added at a fixed concentration (4 μg/mL) was measured by broth microdilution method (common ratio: 2). MIC of MEPM decreasing to less than 1/32 in combination with a test compound is indicated by A, decreasing from 1/32 to 1/16 is indicated by B, decreasing from ⅛ to ¼ is indicated by C, and decreasing to ½ or others are indicated by D. “-” represents untested cases.

| SMILES | Decrease of MIC of MEPM in combination with a test compound, E. coli ATCC BAA-2340 (KPC) | Decrease of MIC of MEPM in combination with a test compound, K. pneumoniae ATCC BAA-2344 (KPC) | Decrease of MIC of MEPM in combination with a test compound, K. pneumoniae ATCC BAA-2524 (OXA-48) |
| --- | --- | --- | --- |
| O=C(O)c1c(OC2CN(C(=O)Cc3cccnc3)C2)ccc2c1O[B-](O)(O)CC2 [Example 14, 4,4-dihydroxy-8-({1-[(pyridin-3-yl)acetyl]azetidin-3-yl}oxy)-5-oxa-4-boranuidabicyclo[4.4.0]deca-l(6),7,9-triene-7-carboxylic acid disodium salt] | A (MIC of MEPM decreasing to less than 1/32 in combination with a test compound is indicated by A) | A (MIC of MEPM decreasing to less than 1/32 in combination with a test compound is indicated by A) | B (decreasing from 1/32 to 1/16 is indicated by B) |
| N[C@H](C(=O)N1CC(Oc2ccc3c(c2C(=O)O)O[B-](O)(O)CC3)C1)c1ccccc1 [Example 15, 8-({1-[(2S)-2-amino-2-phenylacetyl]azetidin-3-yl}oxy)-4,4-dihydroxy-5-oxa-4-boranuidabicyclo[4.4.0]deca-l(6),7,9-triene-7-carboxylic acid disodium salt] | A (MIC of MEPM decreasing to less than 1/32 in combination with a test compound is indicated by A) | A (MIC of MEPM decreasing to less than 1/32 in combination with a test compound is indicated by A) | B (decreasing from 1/32 to 1/16 is indicated by B) |
| O=C(O)c1c(OC2CN(C(=O)Cc3ccncc3)C2)ccc2c1O[B-](O)(O)CC2 [Example 16, 4,4-dihydroxy-8-({1-[(pyridin-4-yl)acetyl]azetidin-3-yl}oxy)-5-oxa-4-boranuidabicyclo[4.4.0]deca-l(6),7,9-triene-7-carboxylic acid disodium salt] | A (MIC of MEPM decreasing to less than 1/32 in combination with a test compound is indicated by A) |  | B (decreasing from 1/32 to 1/16 is indicated by B) |
| O=C(O)c1c(OC2CN(C(=O)Cc3ccc(O)cc3)C2)ccc2c1O[B-](O)(O)CC2 [Example 17, 4,4-dihydroxy-8-({1-[(4-hydroxyphenyl)acetyl]azetidin-3-yl}oxy)-5-oxa-4-boranuidabicyclo[4.4.0]deca-l(6),7,9-triene-7-carboxylic acid disodium salt] | A (MIC of MEPM decreasing to less than 1/32 in combination with a test compound is indicated by A) | B (decreasing from 1/32 to 1/16 is indicated by B) | B (decreasing from 1/32 to 1/16 is indicated by B) |
| O=C(O)c1c(OC2CN(C(=O)Cn3cncn3)C2)ccc2c1O[B-](O)(O)CC2 [Example 18, 4,4-dihydroxy-8-({1-[(1H-1,2,4-triazol-1-yl)acetyl]azetidin-3-yl}oxy)-5-oxa-4-boranuidabicyclo[4.4.0]deca-l(6),7,9-triene-7-carboxylic acid disodium salt] | A (MIC of MEPM decreasing to less than 1/32 in combination with a test compound is indicated by A) | A (MIC of MEPM decreasing to less than 1/32 in combination with a test compound is indicated by A) | B (decreasing from 1/32 to 1/16 is indicated by B) |
| NC(C(=O)N1CC(Oc2ccc3c(c2C(=O)O)O[B-](O)(O)CC3)C1)c1cnc[nH]1 (stereo not drawn) [Example 19, 8-({1-[amino(1H-imidazol-5-yl)acetyl]azetidin-3-yl}oxy)-4,4-dihydroxy-5-oxa-4-boranuidabicyclo[4.4.0]deca-l(6),7,9-triene-7-carboxylic acid disodium salt] | A (MIC of MEPM decreasing to less than 1/32 in combination with a test compound is indicated by A) | A (MIC of MEPM decreasing to less than 1/32 in combination with a test compound is indicated by A) | B (decreasing from 1/32 to 1/16 is indicated by B) |
| O=C(O)c1c(OC2CN(C(=O)Cc3ccccc3)C2)ccc2c1O[B-](O)(O)CC2 [Example 20, 4,4-dihydroxy-8-{[1-(phenylacetyl)azetidin-3-yl]oxy}-5-oxa-4-boranuidabicyclo[4.4.0]deca-l(6),7,9-triene-7-carboxylic acid disodium salt] | A (MIC of MEPM decreasing to less than 1/32 in combination with a test compound is indicated by A) | B (decreasing from 1/32 to 1/16 is indicated by B) | B (decreasing from 1/32 to 1/16 is indicated by B) |
| O=C(O)c1c(OC2CN(C(=O)CCc3ccccc3)C2)ccc2c1O[B-](O)(O)CC2 [Example 21, 4,4-dihydroxy-8-{[1-(3-phenylpropanoyl)azetidin-3-yl]oxy}-5-oxa-4-boranuidabicyclo[4.4.0]deca-l(6),7,9-triene-7-carboxylic acid disodium salt] | A (MIC of MEPM decreasing to less than 1/32 in combination with a test compound is indicated by A) | B (decreasing from 1/32 to 1/16 is indicated by B) | C (decreasing from ⅛ to ¼ is indicated by C) |
| O=C(O)c1c(OC2CN(C(=O)Cn3ccnc3)C2)ccc2c1O[B-](O)(O)CC2 [Example 22, 4,4-dihydroxy-8-({1-[(1H-imidazol-1-yl)acetyl]azetidin-3-yl}oxy)-5-oxa-4-boranuidabicyclo[4.4.0]deca-l(6),7,9-triene-7-carboxylic acid disodium salt] | A (MIC of MEPM decreasing to less than 1/32 in combination with a test compound is indicated by A) | A (MIC of MEPM decreasing to less than 1/32 in combination with a test compound is indicated by A) | B (decreasing from 1/32 to 1/16 is indicated by B) |
| O=C(O)c1c(OC2CN(C(=O)Cn3cnnn3)C2)ccc2c1O[B-](O)(O)CC2 [Example 23, 4,4-dihydroxy-8-({1-[(1H-tetrazol-1-yl)acetyl]azetidin-3-yl}oxy)-5-oxa-4-boranuidabicyclo[4.4.0]deca-l(6),7,9-triene-7-carboxylic acid disodium salt] |  | A (MIC of MEPM decreasing to less than 1/32 in combination with a test compound is indicated by A) | B (decreasing from 1/32 to 1/16 is indicated by B) |
| O=C(O)c1c(OC2CN(C(=O)Cc3nn[nH]n3)C2)ccc2c1O[B-](O)(O)CC2 [Example 24, 4,4-dihydroxy-8-({1-[(2H-tetrazol-5-yl)acetyl]azetidin-3-yl}oxy)-5-oxa-4-boranuidabicyclo[4.4.0]deca-l(6),7,9-triene-7-carboxylic acid disodium salt] | A (MIC of MEPM decreasing to less than 1/32 in combination with a test compound is indicated by A) | A (MIC of MEPM decreasing to less than 1/32 in combination with a test compound is indicated by A) | B (decreasing from 1/32 to 1/16 is indicated by B) |
| N[C@H](Cc1ccccc1)C(=O)N1CC(Oc2ccc3c(c2C(=O)O)O[B-](O)(O)CC3)C1 [Example 25, 4,4-dihydroxy-8-[(1-D-phenylalanylazetidin-3-yl)oxy]-5-oxa-4-boranuidabicyclo[4.4.0]deca-l(6),7,9-triene-7-carboxylic acid disodium salt] | A (MIC of MEPM decreasing to less than 1/32 in combination with a test compound is indicated by A) | A (MIC of MEPM decreasing to less than 1/32 in combination with a test compound is indicated by A) | B (decreasing from 1/32 to 1/16 is indicated by B) |
| N[C@H](Cc1ccc(O)cc1)C(=O)N1CC(Oc2ccc3c(c2C(=O)O)O[B-](O)(O)CC3)C1 [Example 26, 4,4-dihydroxy-8-[(1-D-tyrosylazetidin-3-yl)oxy]-5-oxa-4-boranuidabicyclo[4.4.0]deca-l(6),7,9-triene-7-carboxylic acid disodium salt] | A (MIC of MEPM decreasing to less than 1/32 in combination with a test compound is indicated by A) | A (MIC of MEPM decreasing to less than 1/32 in combination with a test compound is indicated by A) | A (MIC of MEPM decreasing to less than 1/32 in combination with a test compound is indicated by A) |
| N[C@H](Cc1cnc[nH]1)C(=O)N1CC(Oc2ccc3c(c2C(=O)O)O[B-](O)(O)CC3)C1 [Example 27, 8-[(1-D-histidylazetidin-3-yl)oxy]-4,4-dihydroxy-5-oxa-4-boranuidabicyclo[4.4.0]deca-l(6),7,9-triene-7-carboxylic acid disodium salt] |  | A (MIC of MEPM decreasing to less than 1/32 in combination with a test compound is indicated by A) | B (decreasing from 1/32 to 1/16 is indicated by B) |
